Columns and labels:
[1] = molecular target: T1, cathepsin B isolated from human liver (Homo sapiens, UniProt P07858); assay: Cathepsin B enzyme inhibition in vitro, kinetic fluorescence assay (selectivity vs calpain); type: biochemical; settings: ratio of Ki values; Z-Phe-Arg-AMC substrate, pH 6.0
T1 construct: 0.25 nM cathepsin B—isolated from human liver (Calbiochem #219362); purchased Calbiochem 219362; host or cells: human liver (natural source)
Method: (§1) The following solutions and buffers were employed: • HBS (for 40 ml): 800 μl 1M HEPES; 2.16 ml 100 mM KCl; 4.8 ml 1M NaCl; 3.59 ml 5% glucose; 60 μl 1M MgSO4; 400 μl 100 mM Na pyruvate, 28.19 ml water; pH 7.2-7.5. • lysis buffer (for 20 ml): 400 μl 1M Tris pH 8.2; 2.74 ml 1M NaCl; 520 μl 0.5M EDTA; 2 ml 10% triton X-100; 0.8 ml (=1:25) CompletePlus (1 tablet/2 ml H2O); 200 μl 100 mM Pefabloc; 13.34 ml water, pH 8.2. • TBST (10×) (for 11): 100 mM Tris (12.1 g); 1.5M NaCl (87 g); 1% Tween 20 (10 g), adjusted to pH 8. I Enzyme Inhibition In Vitro: • Testing for blockade of the corresponding enzymic activities was carried out by means of kinetic fluorescence assays (excitation 390 nm, emission 460 nm). • Apparent Ki values were calculated from the experimentally determined IC50 values by the Cheng-Prussoff relation assuming a reversible competitive enzyme inhibition. The Km values of the substrates used under the assay conditions indicated above were: 90 μM (Z-Phe-Arg-AMC, cathepsin B), 10 μM (Z-Gly-Pro-Arg-AMC, cathepsin K), 2 μM (Z-Phe-Arg-AMC, cathepsin L), and 30 μM (Z-Val-Val-Arg-AMC, cathepsin S). • The indicated Ki values are averages of the inhibition constants calculated on the basis of 2 to 4 independent dose-effect plots. • The following assays were used: • 1. Calpain I: • 20 nM calpain-1-isolated from human erythrocytes (Calbiochem #208713), 100 μM Suc-Leu-Tyr-AMC (Bachem #1-1355) as substrate in buffer with 62 mM imidazole, 0.3 mM CaCl2, 0.10% CHAPS, 0.05% BSA, 1 mM DTT at pH 7.3 and room temperature. • 2. Cathepsin B: • 0.25 nM cathepsin B—isolated from human liver (Calbiochem #219362), 100 μM Z-Phe-Arg-AMC (Bachem #1-1160) as substrate 50 mM MES, 2 mM EDTA, 0.05% Brij 35, 2.5 mM L-cysteine, pH 6.0, room temperature. • 3. Cathepsin K: • 3 nM cathepsin K-activated from recombinant human procathepsin K from E. coli (Calbiochem #342001), 10 μM Z-Gly-Pro-Arg-AMC (Biomol #P-142) as substrate in 50 mM MES, 2 mM EDTA, 0.05% Brij 35, 2.5 mM L-cysteine, pH 6.0, room temperature. • 4. Cathepsin L: • 1 nM cathepsin L—isolated from human liver (Calbiochem #219402), 2 μM Z-Phe-Arg-AMC (Bachem #1-1160) as substrate in 50 mM MES, 2 mM EDTA, 0.05% Brij 35, 2.5 mM L-cysteine, pH 6.0, room temperature. • 5. Cathepsin S: • 0.5 nM recombinant human cathepsin S from E. coli (Calbiochem #219343), 20 μM Z-Val-Val-Arg-AMC (Bachem #I-1540) as substrate in 50 mM MES, 2 mM EDTA, 0.05% Brij 35, 2.5 mM L-cysteine, pH 6.0, room temperature. • The results of the in vitro determination are indicated in Table 1. The following abbreviations are used in Table 1: • In the “Calpain activity” column, +++ stands for a calpain Ki (Ki(calpain)) of ≦40 nM, and ++ means: 40 nM<Ki(Calpain)≦100 nM and + means 100 nM<Ki(Calpain)≦300 nM. • The “Sel. cat. B” column indicates the Ki(cathepsin B)/Ki(calpain) ratio. In this connection, ++ means a Ki(cathepsin B)/Ki(calpain) ratio of ≧30 and + means 10≦Ki(cathepsin B)/Ki(calpain)<30. • The “Sel. cat. K” column indicates the Ki(cathepsin K)/Ki(calpain) ratio. In this connection, ++ means a Ki(cathepsin K)/Ki(calpain) ratio of ≧30 and + means 10≦Ki(cathepsin K)/Ki(calpain)<30. • The “Sel. cat. L” column indicates the Ki(cathepsin L)/Ki(calpain) ratio. In this connection, ++ means a Ki(cathepsin L)/Ki(calpain) ratio of ≧50 and + means 30≦Ki(cathepsin L)/Ki(calpain)<50. • The “Sel. cat. S” column indicates the Ki(cathepsin S)/Ki(calpain) ratio. In this connection, ++ means a Ki(cathepsin S)/Ki(calpain) ratio of ≧100 and + means 50≦Ki(cathepsin S)/Ki(calpain)<100.

[2] = Cytosolic clearance in human liver cytosol; type: in vitro ADME; settings: 0.5 μM compound, 1 mg/ml human liver cytosol, 37° C., pH 7.5; read-out: human cytCL (cytosolic clearance)
[3] = Cytosolic clearance in cynomolgus monkey liver cytosol; type: in vitro ADME; settings: female; 0.5 μM compound, 1 mg/ml cynomolgus monkey liver cytosol, 37° C., pH 7.5; read-out: cyno cytCL (cytosolic clearance)
[4] = molecular target: T2, cathepsin L isolated from human liver (Homo sapiens, UniProt P07711); assay: Cathepsin L enzyme inhibition in vitro, kinetic fluorescence assay (selectivity vs calpain); type: biochemical; settings: ratio of Ki values; Z-Phe-Arg-AMC substrate, pH 6.0
T2 construct: 1 nM cathepsin L—isolated from human liver (Calbiochem #219402); purchased Calbiochem 219402; host or cells: human liver (natural source)
Method: as §1

[5] = molecular target: T3, cathepsin K activated from recombinant human procathepsin K (Homo sapiens, UniProt P43235); assay: Cathepsin K enzyme inhibition in vitro, kinetic fluorescence assay (selectivity vs calpain); type: biochemical; settings: ratio of Ki values; Z-Gly-Pro-Arg-AMC substrate, pH 6.0
T3 construct: purchased Calbiochem 342001; host or cells: E. coli
T3 sequence (P43235 115-329): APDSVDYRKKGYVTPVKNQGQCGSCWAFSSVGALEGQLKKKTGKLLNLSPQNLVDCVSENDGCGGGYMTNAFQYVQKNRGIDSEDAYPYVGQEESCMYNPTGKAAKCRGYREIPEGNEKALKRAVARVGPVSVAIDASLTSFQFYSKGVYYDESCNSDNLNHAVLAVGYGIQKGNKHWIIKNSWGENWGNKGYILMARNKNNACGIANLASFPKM
Method: as §1

[6] = molecular target: T4, calpain-1 isolated from human erythrocytes (Homo sapiens, UniProt P07384); assay: Calpain I enzyme inhibition in vitro, kinetic fluorescence assay; type: biochemical; settings: apparent Ki calculated from IC50 by Cheng-Prussoff; 100 μM Suc-Leu-Tyr-AMC, pH 7.3, room temperature
T4 construct: 20 nM calpain-1-isolated from human erythrocytes (Calbiochem #208713); purchased Calbiochem 208713; host or cells: human erythrocytes (natural source)
T4 sequence (P07384 1-714): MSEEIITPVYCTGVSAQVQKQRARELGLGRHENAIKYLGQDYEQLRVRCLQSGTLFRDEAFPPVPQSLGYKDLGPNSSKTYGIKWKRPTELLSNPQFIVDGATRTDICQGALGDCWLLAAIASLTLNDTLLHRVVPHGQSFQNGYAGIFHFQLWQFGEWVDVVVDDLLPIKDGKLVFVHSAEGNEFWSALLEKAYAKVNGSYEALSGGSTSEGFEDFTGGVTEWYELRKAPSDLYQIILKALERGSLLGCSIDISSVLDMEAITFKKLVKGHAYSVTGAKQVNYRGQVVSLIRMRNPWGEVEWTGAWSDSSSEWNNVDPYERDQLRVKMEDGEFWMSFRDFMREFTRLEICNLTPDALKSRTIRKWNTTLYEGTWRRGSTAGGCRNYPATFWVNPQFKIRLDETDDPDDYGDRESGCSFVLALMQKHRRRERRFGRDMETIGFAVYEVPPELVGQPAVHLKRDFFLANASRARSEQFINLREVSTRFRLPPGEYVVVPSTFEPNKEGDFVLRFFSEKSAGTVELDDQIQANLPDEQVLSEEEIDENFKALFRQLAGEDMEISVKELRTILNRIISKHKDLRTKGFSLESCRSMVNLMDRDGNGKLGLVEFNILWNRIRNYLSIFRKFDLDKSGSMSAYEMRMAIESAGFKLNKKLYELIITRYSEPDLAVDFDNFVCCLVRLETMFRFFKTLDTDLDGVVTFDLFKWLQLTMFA
T4 sequence (P04632 1-268 partner): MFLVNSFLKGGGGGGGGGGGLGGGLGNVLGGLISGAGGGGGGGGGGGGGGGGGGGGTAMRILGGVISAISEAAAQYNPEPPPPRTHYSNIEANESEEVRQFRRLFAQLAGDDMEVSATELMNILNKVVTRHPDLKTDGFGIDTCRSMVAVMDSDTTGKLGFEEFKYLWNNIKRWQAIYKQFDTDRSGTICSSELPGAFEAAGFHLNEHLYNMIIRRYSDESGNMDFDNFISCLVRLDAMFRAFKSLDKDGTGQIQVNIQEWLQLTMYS
Method: as §1

[7] = molecular target: T5, recombinant human cathepsin S (Homo sapiens, UniProt P25774); assay: Cathepsin S enzyme inhibition in vitro, kinetic fluorescence assay (selectivity vs calpain); type: biochemical; settings: ratio of Ki values; Z-Val-Val-Arg-AMC substrate, pH 6.0
T5 construct: purchased Calbiochem 219343; host or cells: E. coli
Method: as §1

T5 sequence (P25774 115-331): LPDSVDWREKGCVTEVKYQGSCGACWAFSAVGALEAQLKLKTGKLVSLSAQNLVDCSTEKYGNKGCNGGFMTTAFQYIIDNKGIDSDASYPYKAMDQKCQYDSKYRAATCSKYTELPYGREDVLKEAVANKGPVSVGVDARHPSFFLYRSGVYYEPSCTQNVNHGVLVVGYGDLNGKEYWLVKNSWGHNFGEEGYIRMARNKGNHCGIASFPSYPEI
T2 sequence (P07711 114-333): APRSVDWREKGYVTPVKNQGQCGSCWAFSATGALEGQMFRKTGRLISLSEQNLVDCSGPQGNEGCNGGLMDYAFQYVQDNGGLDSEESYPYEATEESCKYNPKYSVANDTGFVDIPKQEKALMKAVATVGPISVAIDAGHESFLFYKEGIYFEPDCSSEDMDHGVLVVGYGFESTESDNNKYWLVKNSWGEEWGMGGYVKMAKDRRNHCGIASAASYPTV

SMILES | Sel cat. B (Ki(cathepsin B)/Ki(calpain) ratio) [1] | microsomal CLint at 0.5 μM [2] [µL/min/mg] | microsomal CLint at 0.5 μM [3] [µL/min/mg] | Sel cat. L (Ki(cathepsin L)/Ki(calpain) ratio) [4] | Sel cat. K (Ki(cathepsin K)/Ki(calpain) ratio) [5] | Ki [6] [nM] | Sel cat. S (Ki(cathepsin S)/Ki(calpain) ratio) [7]
O=C(NC1CC1)C(=O)C(Cc1ccccc1)NC(=O)c1cccnc1-c1csc(-c2ccccc2)n1 (stereo not drawn) [Example 13, N-(4-(Cyclopropylamino)-3,4-dioxo-1-phenylbutan-2-yl)-2-(2-phenylthiazol-4-yl)nicotinamide] | ++ (++ means a Ki(cathepsin B)/Ki(calpain) ratio of ≧30) | < 14 | < 18 | + (+ means 30≦Ki(cathepsin L)/Ki(calpain)<50) | + (+ means 10≦Ki(cathepsin K)/Ki(calpain)<30) | 100 to 300 | –
CONC(=O)C(=O)C(Cc1ccccc1)NC(=O)c1cccnc1-c1csc(-c2ccccc2)n1 (stereo not drawn) [Example 14, N-(4-(Methoxyamino)-3,4-dioxo-1-phenylbutan-2-yl)-2-(2-phenylthiazol-4-yl)nicotinamide] | – | < 14 | < 18 | – | – | 100 to 300 | –
NC(=O)C(=O)C(Cc1ccccc1)NC(=O)c1cccnc1-c1nc(-c2ccc(F)cc2)cs1 (stereo not drawn) [Example 4, N-(4-Amino-3,4-dioxo-1-phenylbutan-2-yl)-2-[4-(4-fluorophenyl)-1,3-thiazol-2-yl]pyridine-3-carboxamide] | + (+ means 10≦Ki(cathepsin B)/Ki(calpain)<30) | – | – | ++ (++ means a Ki(cathepsin L)/Ki(calpain) ratio of ≧50) | + (+ means 10≦Ki(cathepsin K)/Ki(calpain)<30) | 40 to 100 | ++ (++ means a Ki(cathepsin S)/Ki(calpain) ratio of ≧100)
NC(=O)C(=O)C(Cc1ccc(F)cc1)NC(=O)c1cccnc1-c1csc(-c2ccccc2)n1 (stereo not drawn) [Example 15, N-(4-Amino-1-(4-fluorophenyl)-3,4-dioxobutan-2-yl)-2-(2-phenylthiazol-4-yl)nicotinamide] | ++ (++ means a Ki(cathepsin B)/Ki(calpain) ratio of ≧30) | – | – | ++ (++ means a Ki(cathepsin L)/Ki(calpain) ratio of ≧50) | + (+ means 10≦Ki(cathepsin K)/Ki(calpain)<30) | 40 to 100 | ++ (++ means a Ki(cathepsin S)/Ki(calpain) ratio of ≧100)
NC(=O)C(=O)C(Cc1ccccc1)NC(=O)c1cccnc1-c1csc(-c2cccc(C(F)(F)F)c2)n1 (stereo not drawn) [Example 6, N-(4-Amino-3,4-dioxo-1-phenylbutan-2-yl)-2-{2-[3-(trifluoromethyl)phenyl]-1,3-thiazol-4-yl}pyridine-3-carboxamide] | ++ (++ means a Ki(cathepsin B)/Ki(calpain) ratio of ≧30) | – | – | ++ (++ means a Ki(cathepsin L)/Ki(calpain) ratio of ≧50) | + (+ means 10≦Ki(cathepsin K)/Ki(calpain)<30) | ≤ 40 | ++ (++ means a Ki(cathepsin S)/Ki(calpain) ratio of ≧100)

Reference: patent US9567325B2, “Carboxamide compounds and their use as calpain inhibitors” (AbbVie Deutschland GmbH & Co. KG, priority 2009, dated 2017)
